System: MMV008149-resistant clones (Dd2 parent; cytochrome bc1 G131S, Y126C, V284L)
Assay: EC50 assay on MMV008149-resistant lines
Type: cell-based
Details: Plasmodium falciparum, six MMV008149-resistant clones
Experimental: Genomic DNA (gDNA) was isolated from the Dd2 parent and six clones (two clones per resistant selection flask), and samples were prepared for whole-genome sequencing. Samples were sequenced to >60 × coverage using paired end reads and aligned to the 3D7 reference genome and variants were called with HaplotypeCaller (GATK). Comparing the nucleotide variation found in the resistant samples to the Dd2 parent clone, which had been isolated immediately before selections, we identified genomic changes that had presumably occurred during selection. Following this comparison, 19 mutations were identified: 11 SNVs and eight insertion/deletions (INDELs) (Table 2, Supplementary Data 2). INDEL mutations were comprised of intergenic (three), codon INDEL (three), intronic (one) and frame-shift (one) mutations. […] Comparing all six clones, one gene was mutated across all samples: cytochrome bc1. […]
Alternatively, a SYBR Green-based proliferation approach was used for the 72-h assay, as previously described. […] Following incubation, 10 × SYBR Green I (Invitrogen; supplied in 10,000 × concentration) in lysis buffer ([…], 5 mM EDTA, 0.16% Saponin wt per vol and 1.6% Triton X vol per vol) was added to the wells and the plates were incubated overnight at room temperature before plate reading. […]

SMILES: Cc1c(C)n(Cc2ccc(F)cc2)c2ccc(C(=O)NCc3ccco3)cc12 [MMV008149]
- EC50: 1.67 to 10.1 µM

Source: article PMC4912613, “A broad analysis of resistance development in the malaria parasite” (Nature Communications, 2016)
